In US8680113B2, “BMI-1 protein expression modulators” (PTC Therapeutics, Inc., priority 2008, dated 2014):

What follows are compounds tested on Bmi-1 (assay: Sandwich ELISA Assay (Bmi-1 ELISA in HT-1080 cells)).
Format: cell-based, human
Protocol: Cell Seeding and Compound Treatment (Day 1):
HT-1080 cells were seeded at 8000 cells/well (50 uL) in 96-well tissue culture plates. After the cells become adherent (3-4 hours), 2× diluted stocks of compounds in 50 uL DMEM containing 1% DMSO (final DMSO concentration was 0.5%) were added and the plates were incubated at 37° C. under 5% CO2 for 40-48 hours
ELISA Plate First Antibody Preparation (Day 2):
The First Antibody (Millipore Mouse, monoclonal to mouse Bmi-1, clone F6, catalog #05-637) diluted to 2 ug/mL in PBS was added (100 uL) to each well of a Nunc MaxiSorp 96-well ELISA plate. The plate was covered with a plate seal and allowed to stand overnight.
Cell Lysate Preparation (Day 3):
Fresh 1× Lysis buffer was prepared on the day of the assay as follows: 1 mM EDTA, 150 mM NaCl, 0.5% Triton-X 100, 10 mM NaF, 20 mM B-Glycerophosphate, 1 mM DTT (in PBS, pH 7.2-7.4) and 1×HALT protease inhibitor cocktail (Pierce #78410).
1× Lysis Buffer (40 uL) was added to each well and the plate was shaken for 5-10 minutes on an orbital shaker to allow cell lysis, then Diluent (1% BSA in PBS in 0.5% NP40) (100 uL) was added to each well.
The Bmi-1 standard curve was prepared in Diluent at the following concentrations of protein: 8000, 4000, 2000, 1000, 500, 250, 125, 0 pg/mL The Bmi-1 Recombinant Protein Standard (Novus Biologicals PCGF4 Recombinant Protein (P01), catalog #H00000648-P01) used in the standard curve was stored at −80° C., and on first thaw, diluted to 10 ug/uL in Blocking Buffer (1% BSA in PBS; BSA: Fisher Scientific Catalog #1600-100) before being aliquoted and refrozen at −80° C. Aliquots can be kept at 4° C. and reused after first thaw, but only for 1-2 weeks. The Bmi-1 Recombinant Protein Standard contains a GST-fusion tag and thus will show up on western blots around 70 Kda.
The prepared ELISA plate was washed 3× with Wash Buffer (0.05% Tween-20 in PBS). The final wash was removed from the plate and the plate was blotted dry on paper towels. Blocking Buffer (300 uL) (1% BSA in PBS) was added per well. The plate was covered with a plate seal and incubated at room temperature for 1 hour. The blocked plate was washed 3× with Wash Buffer, the final wash was removed and the plate was blotted dry on paper towels. The previously prepared samples and standards were added (at 100 uL/well) and the plate was covered with a plate seal and incubated at 4° C. overnight.
The prepared ELISA plate was removed from 4° C., incubated at room temperature for 30 minutes, then washed and blotted dry as previously described for Day 3. The Second Antibody (Cell Signaling Rabbit anti-Bmi-1, Cat#2830) diluted to 1:600 in Blocking Buffer was added (100 uL) to each well, except as needed for background control wells. The plate was covered with a plate seal and incubated for 1.5 hrs at room temperature.
The ELISA plate was washed and blotted dry as previously described. The Third Antibody (Cell Signaling HRP conjugated anti-rabbit IgG (CellSignaling, Cat#:7074) diluted to 1:300 in Blocking Buffer was added (100 uL) to each well, except as needed for background control wells. The plate was incubated for 1 hr at room temperature.
The plate was washed and blotted dry as previously described, then prepared TMB substrate (TMB substrate kit, Pierce catalog #34021) (prepared by mixing kit reagents 1:1) (100 uL) was added per well. The plate was incubated for 20-30 minutes at room temperature in the dark, then Stop Solution (2 M sulfuric acid in water) (50 uL) was added per well. The plates were read at OD450 (experimental) and OD570 (reference).
Work on “1-(3-{[4-(6-fluoro-2-methylimidazo[1,2-a]pyridin-3-yl)-1,3-thiazol-2-yl]amino}phenyl)ethanone [Cpd 238]” yielded an IC50 of under 0.5 µM. Compound “1-(4-{[4-(imidazo[1,2-a]pyrimidin-3-yl)pyrimidin-2-yl]amino}phenyl)ethanone [Cpd 258]” has an IC50 of under 0.5 µM. With CCOc1ccc(Nc2nc(-c3c(C)nc4ncccn34)cs2)cc1 [Cpd 13, N-(4-ethoxyphenyl)-4-(2-methylimidazo[1,2-a]pyrimidin-3-yl)thiazol-2-amine] the IC50 was under 0.5 µM. For COc1ccc(Nc2nc(-c3c(C)nc4cc(C)ccn34)cs2)cc1 [Cpd 17, 4-(2,7-dimethylimidazo[1,2-a]pyridin-3-yl)-N-(4-methoxyphenyl)thiazol-2-amine], the IC50 was under 0.5 µM. Compound COc1cc(Cl)c(Nc2nc(-c3c(C)nc4ncccn34)cs2)c(Cl)c1 [Cpd 19, N-(2,6-dichloro-4-methoxyphenyl)-4-(2-methylimidazo[1,2-a]pyrimidin-3-yl)thiazol-2-amine] has an IC50 of 0.5 to 1 µM. COc1cc(F)c(Nc2nc(-c3c(C)nc4ncccn34)cs2)c(F)c1 [Cpd 20, N-(2,6-difluoro-4-methoxyphenyl)-4-(2-methylimidazo[1,2-a]pyrimidin-3-yl)thiazol-2-amine] showed an IC50 of 1 to 3 µM. For Cc1cc(Br)c(Nc2nc(-c3c(C)nc4ncccn34)cs2)c(Br)c1 [Cpd 21, N-(2,6-dibromo-4-methylphenyl)-4-(2-methylimidazo[1,2-a]pyrimidin-3-yl)thiazol-2-amine], the IC50 was under 0.5 µM. With Cc1nc2ncccn2c1-c1csc(Nc2c(Br)cc(Br)cc2Br)n1 [Cpd 22, 4-(2-methylimidazo[1,2-a]pyrimidin-3-yl)-N-(2,4,6-tribromophenyl)thiazol-2-amine] the IC50 was under 0.5 µM. In the case of COCCOc1cc(Br)c(Nc2nc(-c3c(C)nc4ncccn34)cs2)c(Br)c1 [Cpd 23, N-(2,6-dibromo-4-(2-methoxyethoxy)phenyl)-4-(2-methylimidazo[1,2-a]pyrimidin-3-yl)thiazol-2-amine], the IC50 is reported as 1 to 3 µM. Compound Cc1ccn2c(-c3csc(Nc4cccc(O)c4)n3)c(C)nc2c1 [Cpd 31, 3-{[4-(2,7-dimethylimidazo[1,2-a]pyridin-3-yl)-1,3-thiazol-2-yl]amino}phenol] has an IC50 of under 0.5 µM. Compound Cc1ccc(Nc2nc(-c3c(C)nc4cc(C)ccn34)cs2)cc1 [Cpd 32, 4-(2,7-dimethylimidazo[1,2-a]pyridin-3-yl)-N-(4-methylphenyl)-1,3-thiazol-2-amine] has an IC50 of under 0.5 µM. Work on CC(=O)c1ccc(Nc2nc(-c3c(C)nc4cc(C)ccn34)cs2)cc1 [Cpd 33, 1-(4-{[4-(2,7-dimethylimidazo[1,2-a]pyridin-3-yl)-1,3-thiazol-2-yl]amino}phenyl)ethanone] yielded an IC50 of under 0.5 µM. For CC(=O)c1ccc(Nc2nc(-c3c(C)nc4ncccn34)cs2)cc1 [Cpd 34, 1-(4-{[4-(2-methylimidazo[1,2-a]pyrimidin-3-yl)-1,3-thiazol-2-yl]amino}phenyl)ethanone], the IC50 was under 0.5 µM. Cc1nc2ccccn2c1-c1csc(Nc2cccc(O)c2)n1 [Cpd 35, 3-{[4-(2-methylimidazo[1,2-a]pyridin-3-yl)-1,3-thiazol-2-yl]amino}phenol] showed an IC50 of under 0.5 µM. For Cc1nc2ccccn2c1-c1csc(Nc2ccc(O)cc2)n1 [Cpd 36, 4-{[4-(2-methylimidazo[1,2-a]pyridin-3-yl)-1,3-thiazol-2-yl]amino}phenol], the IC50 was under 0.5 µM. With Cc1nc2ncccn2c1-c1csc(Nc2ccc3c(c2)OCO3)n1 [Cpd 37, N-(1,3-benzodioxol-5-yl)-4-(2-methylimidazo[1,2-a]pyrimidin-3-yl)-1,3-thiazol-2-amine] the IC50 was under 0.5 µM. With Cc1nc2ncccn2c1-c1csc(Nc2c(Cl)cccc2Cl)n1 [Cpd 38, N-(2,6-dichlorophenyl)-4-(2-methylimidazo[1,2-a]pyrimidin-3-yl)-1,3-thiazol-2-amine] the IC50 was under 0.5 µM. Cc1nc2ncccn2c1-c1csc(N(C)c2ccc3c(c2)OCO3)n1 [Cpd 40, N-(1,3-benzodioxol-5-yl)-N-methyl-4-(2-methylimidazo[1,2-a]pyrimidin-3-yl)-1,3-thiazol-2-amine] was tested, and the IC50 was under 0.5 µM. Work on Cc1nc2ccccn2c1-c1csc(Nc2ccc(N(C)C)cc2)n1 [Cpd 41, N,N-dimethyl-N′-[4-(2-methylimidazo[1,2-a]pyridin-3-yl)-1,3-thiazol-2-yl]benzene-1,4-diamine] yielded an IC50 of under 0.5 µM. Cc1nc2ncccn2c1-c1ccnc(Nc2ccc(N(C)C)cc2)n1 [Cpd 43, N,N-dimethyl-N′-[4-(2-methylimidazo[1,2-a]pyrimidin-3-yl)pyrimidin-2-yl]benzene-1,4-diamine] gave an IC50 of under 0.5 µM. Work on COc1ccc(Nc2nc(-c3c(C)nc4ccccn34)cs2)cc1 [Cpd 44, N-(4-methoxyphenyl)-4-(2-methylimidazo[1,2-a]pyridin-3-yl)-1,3-thiazol-2-amine] yielded an IC50 of under 0.5 µM. COc1ccc(Nc2nc(-c3c(C)nc4ncccn34)cs2)cc1F [Cpd 45, N-(3-fluoro-4-methoxyphenyl)-4-(2-methylimidazo[1,2-a]pyrimidin-3-yl)-1,3-thiazol-2-amine] was tested, and the IC50 was under 0.5 µM. Compound COc1ccc(Nc2nc(-c3c(C)nc4ncccn34)cs2)cc1Cl [Cpd 46, N-(3-chloro-4-methoxyphenyl)-4-(2-methylimidazo[1,2-a]pyrimidin-3-yl)-1,3-thiazol-2-amine] has an IC50 of under 0.5 µM. COc1ccc(N(C)c2nccc(-c3c(C)nc4ncccn34)n2)cc1 [Cpd 47, N-(4-methoxyphenyl)-N-methyl-4-(2-methylimidazo[1,2-a]pyrimidin-3-yl)pyrimidin-2-amine] gave an IC50 of under 0.5 µM. Work on Cc1nc2ncccn2c1-c1csc(Nc2ccc(Br)cc2)n1 [Cpd 48, N-(4-bromophenyl)-4-(2-methylimidazo[1,2-a]pyrimidin-3-yl)-1,3-thiazol-2-amine] yielded an IC50 of under 0.5 µM. COc1ccc(Nc2nc(-c3c(C)nc4ccccn34)cs2)cc1Cl [Cpd 50, N-(3-chloro-4-methoxyphenyl)-4-(2-methylimidazo[1,2-a]pyridin-3-yl)-1,3-thiazol-2-amine] showed an IC50 of under 0.5 µM. With COc1ccc(Nc2nc(-c3c(C)nc4ccccn34)cs2)cc1F [Cpd 51, N-(3-fluoro-4-methoxyphenyl)-4-(2-methylimidazo[1,2-a]pyridin-3-yl)-1,3-thiazol-2-amine] the IC50 was under 0.5 µM. COCCOc1ccc(Nc2nc(-c3c(C)nc4ccccn34)cs2)cc1 [Cpd 52, N-[4-(2-methoxyethoxy)phenyl]-4-(2-methylimidazo[1,2-a]pyridin-3-yl)-1,3-thiazol-2-amine] gave an IC50 of under 0.5 µM. In the case of Cc1nc2ccccn2c1-c1csc(Nc2ccc(I)cc2)n1 [Cpd 53, N-(4-iodophenyl)-4-(2-methylimidazo[1,2-a]pyridin-3-yl)-1,3-thiazol-2-amine], the IC50 is reported as under 0.5 µM. COCCOc1cc(Br)c(Nc2nc(-c3c(C)nc4ccccn34)cs2)c(Br)c1 [Cpd 54, N-[2,6-dibromo-4-(2-methoxyethoxy)phenyl]-4-(2-methylimidazo[1,2-a]pyridin-3-yl)-1,3-thiazol-2-amine] gave an IC50 of under 0.5 µM. CC(=O)c1ccc(Nc2nc(-c3c(C)nc4ccccn34)cs2)cc1 [Cpd 55, 1-(4-{[4-(2-methylimidazo[1,2-a]pyridin-3-yl)-1,3-thiazol-2-yl]amino}phenyl)ethanone] was tested, and the IC50 was under 0.5 µM. Work on Cc1nc2ccccn2c1-c1csc(Nc2ccc3c(c2)OCO3)n1 [Cpd 56, N-(1,3-benzodioxol-5-yl)-4-(2-methylimidazo[1,2-a]pyridin-3-yl)-1,3-thiazol-2-amine] yielded an IC50 of under 0.5 µM.
